Where two headings read alike, the source gives them in different places.
How the values were obtained:
S. cerevisiae = experiment: in vitro; details: Saccharomyces cerevisiae
Description: (§1) These tests included an IL-12 mouse model test to determine compound efficacy, verification of MIC50 for CP, cytotoxicity test for fibroblasts and yeast to determine potential toxic effects, a Human ether-a-go-go-related gene (hERG) test to determine potential cardiotoxicity, an AMES test tp determine mutagenic potential, a Safety Screen 44 test to determine common negative off-target drug interastion (Eurofins Cerep, SA, France), a cytochrome P450 (CYP) test to determine potential liver toxicity, a maximum tolerated dose, test, a Pharmacokinetics (PK) test to determine fate of the substance administered to a living organism tests for plasma stability in human and mouse, to measure the degradation of compound in plasma MClint and HClint test to determine in vitro intrinsic clearance for Mouse and Human, and kinetic solubility and plasma protein binding tests in mouse and human.

human fibroblast = experiment: in vitro
Description: as §1

SMILES: CONC(=O)C(C)c1ccc(Oc2nc3ccc(Cl)cc3s2)cc1 (stereo not drawn) [NZ-313, 2-{4-[(6-chloro-1,3-benzothiazol-2-yl)oxy]phenyl}-N-methoxypropanamide]
- concentrations at which not toxic, S. cerevisiae cytotoxicity testing (S. cerevisiae): ≥ 100 µM
- concentrations at which not toxic, human fibroblast cytotoxicity testing (human fibroblast; human): ≥ 100 µM

SMILES: COC(=O)C(C)(C)Oc1ccc(Oc2cnc3cc(Cl)ccc3n2)cc1 [NZ-314, methyl 2-{4-[(6-chloroquinoxalin-2-yl)oxy]phenoxy}-2-methylpropanoate]
- concentrations at which not toxic, S. cerevisiae cytotoxicity testing (S. cerevisiae): ≥ 100 µM
- concentrations at which not toxic, human fibroblast cytotoxicity testing (human fibroblast; human): ≥ 100 µM

SMILES: CC(C)(Oc1ccc(Oc2cnc3cc(Cl)ccc3n2)cc1)C(=O)O [NZ-315, 2-{4-[(6-chloroquinoxalin-2-yl)oxy]phenoxy}-2-methylpropanoic acid]
- concentrations at which not toxic, S. cerevisiae cytotoxicity testing (S. cerevisiae): ≥ 100 µM
- concentrations at which not toxic, human fibroblast cytotoxicity testing (human fibroblast): ≥ 100 µM

SMILES: CONC(=O)C(C)(C)Oc1ccc(Oc2cnc3cc(Cl)ccc3n2)cc1 [NZ-316, 2-{4-[(6-chloroquinoxalin-2-yl)oxy]phenoxy}-N-methoxy-2-methylpropanamide]
- concentrations at which not toxic, S. cerevisiae cytotoxicity testing (S. cerevisiae): ≥ 100 µM
- concentrations at which not toxic, human fibroblast cytotoxicity testing (human fibroblast; human): ≥ 100 µM

SMILES: COC(=O)C(C)(C)Oc1ccc(Oc2nc3ccc(Cl)cc3s2)cc1 [NZ-317, methyl 2-{4-[(6-chloro-1,3-benzothiazol-2-yl)oxy]phenoxy}-2-methylpropanoate]
- concentrations at which not toxic, S. cerevisiae cytotoxicity testing (S. cerevisiae): ≥ 100 µM
- concentrations at which not toxic, human fibroblast cytotoxicity testing (human fibroblast; human): ≥ 100 µM

SMILES: CC(C)(Oc1ccc(Oc2nc3ccc(Cl)cc3s2)cc1)C(=O)O [NZ-318, 2-{4-[(6-chloro-1,3-benzothiazol-2-yl)oxy]phenoxy}-2-methylpropanoic acid]
- concentrations at which not toxic, S. cerevisiae cytotoxicity testing (S. cerevisiae): ≥ 100 µM
- concentrations at which not toxic, human fibroblast cytotoxicity testing (human fibroblast): ≥ 100 µM

SMILES: CONC(=O)C(C)(C)Oc1ccc(Oc2nc3ccc(Cl)cc3s2)cc1 [NZ-319, 2-{4-[(6-chloro-1,3-benzothiazol-2-yl)oxy]phenoxy}-N-methoxy-2-methylpropanamide]
- concentrations at which not toxic, S. cerevisiae cytotoxicity testing (S. cerevisiae): ≥ 100 µM
- concentrations at which not toxic, human fibroblast cytotoxicity testing (human fibroblast; human): ≥ 100 µM

SMILES: CONC(=O)c1cc2ccc(Oc3ccccc3)cc2oc1=O [NZ-320, N-methoxy-2-oxo-7-phenoxy-2H-chromene-3-carboxamide]
- concentrations at which not toxic, S. cerevisiae cytotoxicity testing (S. cerevisiae): ≥ 100 µM
- concentrations at which not toxic, human fibroblast cytotoxicity testing (human fibroblast; human): ≥ 100 µM

SMILES: CC(C)(C)OC(=O)Nc1ccc(Oc2cnc3cc(Cl)ccc3n2)cc1 [NZ-321, tert-butyl N-{4-[(6-chloroquinoxalin-2-yl)oxy]phenyl}carbamate]
- concentrations at which not toxic, S. cerevisiae cytotoxicity testing (S. cerevisiae): ≥ 100 µM
- concentrations at which not toxic, human fibroblast cytotoxicity testing (human fibroblast; human): ≥ 100 µM

SMILES: O=C(COc1ccc(Oc2cnc3cc(Cl)ccc3n2)cc1)NOCC1CC1 [NZ-323, 2-{4-[(6-chloroquinoxalin-2-yl)oxy]phenoxy}-N-(cyclopropylmethoxy)acetamide]
- concentrations at which not toxic, S. cerevisiae cytotoxicity testing (S. cerevisiae): ≥ 100 µM
- concentrations at which not toxic, human fibroblast cytotoxicity testing (human fibroblast): ≥ 100 µM

SMILES: CC(C)ONC(=O)COc1ccc(Oc2cnc3cc(Cl)ccc3n2)cc1 [NZ-326, 2-{4-[(6-chloroquinoxalin-2-yl)oxy]phenoxy}-N-(propan-2-yloxy)acetamide]
- concentrations at which not toxic, S. cerevisiae cytotoxicity testing (S. cerevisiae): ≥ 100 µM
- concentrations at which not toxic, human fibroblast cytotoxicity testing (human fibroblast): ≥ 100 µM

SMILES: COC(=O)C(C)c1ccc(Oc2nc3ccc(F)cc3s2)cc1 (stereo not drawn) [NZ-328, methyl 2-{4-[(6-fluoro-1,3-benzothiazol-2-yl)oxy]phenyl}propanoate]
- concentrations at which not toxic, S. cerevisiae cytotoxicity testing (S. cerevisiae): ≥ 100 µM
- concentrations at which not toxic, human fibroblast cytotoxicity testing (human fibroblast; human): ≥ 100 µM

SMILES: CC(C(=O)O)c1ccc(Oc2nc3ccc(F)cc3s2)cc1 (stereo not drawn) [NZ-329, 2-{4-[(6-fluoro-1,3-benzothiazol-2-yl)oxy]phenyl}propanoic acid]
- concentrations at which not toxic, S. cerevisiae cytotoxicity testing (S. cerevisiae): ≥ 100 µM
- concentrations at which not toxic, human fibroblast cytotoxicity testing (human fibroblast; human): ≥ 100 µM

SMILES: CONC(=O)C(C)c1ccc(Oc2nc3ccc(F)cc3s2)cc1 (stereo not drawn) [NZ-330, 2-{4-[(6-fluoro-1,3-benzothiazol-2-yl)oxy]phenyl}-N-methoxypropanamide]
- concentrations at which not toxic, S. cerevisiae cytotoxicity testing (S. cerevisiae): ≥ 100 µM
- concentrations at which not toxic, human fibroblast cytotoxicity testing (human fibroblast; human): ≥ 100 µM

SMILES: COc1ccc2nc(Oc3ccc(C(C)C(=O)O)cc3)sc2c1 (stereo not drawn) [NZ-334]
- concentrations at which not toxic, S. cerevisiae cytotoxicity testing (S. cerevisiae): ≥ 100 µM
- concentrations at which not toxic, human fibroblast cytotoxicity testing (human fibroblast; human): ≥ 100 µM

SMILES: CONC(=O)C(C)c1ccc(Oc2nc3ccc(OC)cc3s2)cc1 (stereo not drawn) [NZ-335, N-methoxy-2-{4-[(6-methoxy-1,3-benzothiazol-2-yl)oxy]phenyl}propanamide]
- concentrations at which not toxic, S. cerevisiae cytotoxicity testing (S. cerevisiae): ≥ 100 µM
- concentrations at which not toxic, human fibroblast cytotoxicity testing (human fibroblast; human): ≥ 100 µM

SMILES: COC(=O)C(O)c1ccc(Oc2nc3ccc(Cl)cc3s2)cc1 (stereo not drawn) [NZ-336, methyl 2-{4-[(6-chloro-1,3-benzothiazol-2-yl)oxy]phenyl}-2-hydroxyacetate]
- concentrations at which not toxic, S. cerevisiae cytotoxicity testing (S. cerevisiae): 50 to 100 µM
- concentrations at which not toxic, human fibroblast cytotoxicity testing (human fibroblast; human): 50 to 100 µM

SMILES: O=C(O)C(O)c1ccc(Oc2nc3ccc(Cl)cc3s2)cc1 (stereo not drawn) [NZ-337, 2-{4-[(6-chloro-1,3-benzothiazol-2-yl)oxy]phenyl}-2-hydroxyacetic acid]
- concentrations at which not toxic, S. cerevisiae cytotoxicity testing (S. cerevisiae): ≥ 100 µM
- concentrations at which not toxic, human fibroblast cytotoxicity testing (human fibroblast; human): ≥ 100 µM

SMILES: COc1ccc2nc(Oc3ccc(NC(=O)NC(C)C)cc3)sc2c1 [NZ-361, 1-{4-[(6-methoxy-1,3-benzathiazol-2-yl)oxy]phenyl}-3-(propan-2-yl)urea]
- concentrations at which not toxic, S. cerevisiae cytotoxicity testing (S. cerevisiae): ≥ 100 µM
- concentrations at which not toxic, human fibroblast cytotoxicity testing (human fibroblast; human): ≥ 100 µM

SMILES: CC(C)NC(=O)Nc1ccc(Oc2nc3ccc(O)cc3s2)cc1 [NZ-362, 1-{4-[(6-hydroxy-1,3-benzothiazol-2-yl)oxy]phenyl}-3-(propan-2-yl)urea]
- concentrations at which not toxic, S. cerevisiae cytotoxicity testing (S. cerevisiae): ≥ 100 µM
- concentrations at which not toxic, human fibroblast cytotoxicity testing (human fibroblast; human): ≥ 100 µM

SMILES: CC(C)NC(=O)Nc1ccc(Oc2nc3cc(F)ccc3s2)cc1 [NZ-373, 1-{4-[(5-fluoro-1,3-benzothiazol-2-yl)oxy]phenyl}-3-(propan-2-yl)urea]
- concentrations at which not toxic, S. cerevisiae cytotoxicity testing (S. cerevisiae): ≥ 100 µM
- concentrations at which not toxic, human fibroblast cytotoxicity testing (human fibroblast): ≥ 100 µM

SMILES: CC(C)NC(=O)Nc1ccc(Oc2nc3c(F)cccc3s2)cc1 [NZ-374, 1-{4-[(4-fluoro-1,3-benzothiazol-2-yl)oxy]phenyl}-3-(propan-2-yl)urea]
- concentrations at which not toxic, S. cerevisiae cytotoxicity testing (S. cerevisiae): ≥ 100 µM
- concentrations at which not toxic, human fibroblast cytotoxicity testing (human fibroblast; human): ≥ 100 µM

SMILES: CC(C)NC(=O)Nc1ccc(Oc2nc3cc(Cl)ccc3s2)cc1 [NZ-376, 1-{4-[(5-chloro-1,3-benzothiazol-2-yl)oxy]phenyl}-3-(propan-2-yl)urea]
- concentrations at which not toxic, S. cerevisiae cytotoxicity testing (S. cerevisiae): ≥ 100 µM
- concentrations at which not toxic, human fibroblast cytotoxicity testing (human fibroblast): ≥ 100 µM

SMILES: CC(C)NC(=O)Nc1ccc(Oc2nc3ccc(C#N)cc3s2)cc1 [NZ-377, 1-{4-[(6-cyano-1,3-benzothiazol-2-yl)oxy]phenyl}-3-(propan-2-yl)urea]
- concentrations at which not toxic, S. cerevisiae cytotoxicity testing (S. cerevisiae): ≥ 100 µM
- concentrations at which not toxic, human fibroblast cytotoxicity testing (human fibroblast): ≥ 100 µM

SMILES: CCOC(=O)c1ccc2nc(Oc3ccc(NC(=O)NC(C)C)cc3)sc2c1 [NZ-378, ethyl 2-(4-{[(propan-2-yl)carbamoyl]amino}phenoxy)-1,3-benzothiazole-6-carboxylate]
- concentrations at which not toxic, S. cerevisiae cytotoxicity testing (S. cerevisiae): ≥ 100 µM
- concentrations at which not toxic, human fibroblast cytotoxicity testing (human fibroblast; human): ≥ 100 µM

SMILES: CC(C)NC(=O)Nc1ccc(Oc2nc3ccc(C(F)(F)F)cc3s2)cc1 [NZ-379, 3-(propan-2-yl)-1-(4-{[6-(trifluoromethyl)-1,3-benzothiazol-2-yl]oxy}phenyl)urea]
- concentrations at which not toxic, S. cerevisiae cytotoxicity testing (S. cerevisiae): ≥ 100 µM
- concentrations at which not toxic, human fibroblast cytotoxicity testing (human fibroblast; human): ≥ 100 µM

SMILES: CC(C)NC(=O)Nc1ccc(Oc2nc3ccc(S(C)(=O)=O)cc3s2)cc1 [NZ-380, 1-{4-[(6-methanesulfonyl-1,3-benzothiazol-2-yl)oxy]phenyl}-3-(propan-2-yl)urea]
- concentrations at which not toxic, S. cerevisiae cytotoxicity testing (S. cerevisiae): ≥ 100 µM
- concentrations at which not toxic, human fibroblast cytotoxicity testing (human fibroblast; human): ≥ 100 µM

SMILES: CC(C)NC(=O)Nc1ccc(Oc2nc3ccc(CO)cc3s2)cc1 [NZ-381, 1-(4-{[6-(hydroxymethyl)-1,3-benzothiazol-2-yl]oxy}phenyl)-3-(propan-2-yl)urea]
- concentrations at which not toxic, S. cerevisiae cytotoxicity testing (S. cerevisiae): ≥ 100 µM
- concentrations at which not toxic, human fibroblast cytotoxicity testing (human fibroblast; human): ≥ 100 µM

SMILES: CC(C)NC(=O)Nc1ccc(Oc2nc3cc(F)c(F)cc3s2)cc1 [NZ-382, 1-{4-[(5,6-difluoro-1,3-benzothiazol-2-yl)oxy]phenyl}-3-(propan-2-yl)urea]
- concentrations at which not toxic, S. cerevisiae cytotoxicity testing (S. cerevisiae): 50 to 100 µM
- concentrations at which not toxic, human fibroblast cytotoxicity testing (human fibroblast; human): ≥ 100 µM

SMILES: CNC(=O)Cc1ccc(Oc2nc3ccc(Cl)cc3s2)cc1 [NZ-383]
- concentrations at which not toxic, S. cerevisiae cytotoxicity testing (S. cerevisiae): ≥ 100 µM
- concentrations at which not toxic, human fibroblast cytotoxicity testing (human fibroblast): ≥ 100 µM

SMILES: CNC(=O)Cc1ccc(Oc2nc3ccc(F)cc3s2)cc1 [NZ-385, 2-{4-[(6-fluoro-1,3-benzothiazol-2-yl)oxy]phenyl}-N-methylacetamide]
- concentrations at which not toxic, S. cerevisiae cytotoxicity testing (S. cerevisiae): ≥ 100 µM
- concentrations at which not toxic, human fibroblast cytotoxicity testing (human fibroblast): ≥ 100 µM

SMILES: CC(C)NC(=O)N(C)c1ccc(Oc2nc3ccc(Cl)cc3s2)cc1 [NZ-388, 1-{4-[(6-chloro-1,3-benzothiazol-2-yl)oxy]phenyl}-1-methyl-3-(propan-2-yl)urea]
- concentrations at which not toxic, S. cerevisiae cytotoxicity testing (S. cerevisiae): ≥ 100 µM
- concentrations at which not toxic, human fibroblast cytotoxicity testing (human fibroblast): ≥ 100 µM

SMILES: CNC(=O)Cc1ccc(O)cc1Oc1nc2ccc(Cl)cc2s1 [NZ-390, 2-{2-[(6-chloro-1,3-benzothiazol-2-yl)oxy]-4-hydroxyphenyl}-N-methylacetamide]
- concentrations at which not toxic, S. cerevisiae cytotoxicity testing (S. cerevisiae): ≥ 100 µM
- concentrations at which not toxic, human fibroblast cytotoxicity testing (human fibroblast; human): ≥ 100 µM

Source: patent US11083717B2, “Compositions and methods for drug sensitization of parasites” (The Texas A&M University System, priority 2015, dated 2021)
